Data as given in PMC10122656, “Siglec-6 mediates the uptake of extracellular vesicles through a noncanonical glycolipid binding pocket” (Nature Communications, 2023).
Changes are numbered by the printed parent chain. “And” between values parts separate entries of the source, which are not always exact repeats. Identical values can stand only once.

Experiments:
Assay in all cases: Cell assay (liposome/EV binding, flow cytometry)
Format in all cases: cell-based
[1] = biological target: T1, Siglec-10 R119A CHO cells (Homo sapiens, UniProt Q96LC7, R119A); settings: Sig-10 R119A; 3 mol% ganglioside liposomes; replicates
T1 construct: expressed in transfected cells
T1 sequence (Q96LC7 17-697 R119A): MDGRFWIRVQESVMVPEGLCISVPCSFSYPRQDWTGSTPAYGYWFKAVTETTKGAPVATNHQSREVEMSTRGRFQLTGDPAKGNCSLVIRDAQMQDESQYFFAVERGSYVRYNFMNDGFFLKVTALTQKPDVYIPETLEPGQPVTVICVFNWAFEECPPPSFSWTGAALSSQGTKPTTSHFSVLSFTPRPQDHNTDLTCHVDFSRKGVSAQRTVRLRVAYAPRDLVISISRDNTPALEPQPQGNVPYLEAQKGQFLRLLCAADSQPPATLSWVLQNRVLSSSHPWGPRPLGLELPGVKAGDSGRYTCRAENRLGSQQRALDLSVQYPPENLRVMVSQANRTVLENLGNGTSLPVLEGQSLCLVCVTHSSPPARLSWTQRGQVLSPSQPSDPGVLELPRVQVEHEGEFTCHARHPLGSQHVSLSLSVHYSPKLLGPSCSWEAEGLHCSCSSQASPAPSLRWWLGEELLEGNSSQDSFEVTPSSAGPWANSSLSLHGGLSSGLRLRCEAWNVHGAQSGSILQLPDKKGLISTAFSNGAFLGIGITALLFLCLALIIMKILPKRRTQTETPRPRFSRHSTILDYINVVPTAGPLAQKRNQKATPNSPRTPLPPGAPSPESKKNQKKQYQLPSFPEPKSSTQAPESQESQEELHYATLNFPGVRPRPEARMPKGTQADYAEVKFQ
How it was run: (§1)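 Binding of AF647-labelled, Siglec ligand-bearing liposomes (130 ± 35 nm) or EVs was measured on transfected CHO cells. Exposure was 50 µM or 50 µg/mL for 30 min at 37 °C; Siglec-positive cells were gated for analysis.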

Siglec-10 WT CHO cells = biological target: T2, Siglec-10 WT CHO cells (Homo sapiens, UniProt Q96LC7); settings: for log10(MFI AF647) of GLL relative to log10(MFI AF647) of the same GLL against UT CHO cells (Fig. 2a): Sig-10 WT, 3 mol% ganglioside liposomes, replicates; for GLL binding to Siglec-10 (in words): cell assay, optimized liposomal formulation
T2 construct: expressed in transfected cells
T2 sequence (Q96LC7 17-697): T1 sequence (Q96LC7 17-697 R119A) with A103R
How it was run: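 Cells are incubated for 30 min at 37 °C with ligand-displaying liposomes (50 µM lipid) or EVs (50 µg/mL protein) in DMEM F12 containing 5% FBS. After washing and anti-Siglec staining on ice, liposome binding is quantified by flow cytometry within the Siglec-positive population.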

Siglec-15 WT CHO cells = biological target: T3, Siglec-15 WT CHO cells (Homo sapiens, UniProt Q6ZMC9, K274L); settings: Sig-15 WT; 3 mol% ganglioside liposomes; replicates
T3 construct: expressed in transfected cells
T3 sequence (Q6ZMC9 20-328 K274L): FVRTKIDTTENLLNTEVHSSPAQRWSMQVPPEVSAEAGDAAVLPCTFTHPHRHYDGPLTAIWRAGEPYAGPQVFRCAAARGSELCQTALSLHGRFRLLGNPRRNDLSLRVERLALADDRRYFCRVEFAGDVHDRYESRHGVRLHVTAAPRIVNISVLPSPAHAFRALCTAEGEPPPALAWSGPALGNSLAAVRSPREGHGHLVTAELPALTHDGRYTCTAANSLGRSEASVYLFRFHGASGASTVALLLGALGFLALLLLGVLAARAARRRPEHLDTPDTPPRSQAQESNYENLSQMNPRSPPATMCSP
How it was run: as §1

GD1a
log10(MFI AF647) of GLL relative to log10(MFI AF647) of the same GLL against UT CHO cells (Fig. 2a) [1]: 0.11 and 0.12 and 0.1 (2×)
log10(MFI AF647) of GLL relative to log10(MFI AF647) of the same GLL against UT CHO cells (Fig. 2a) (Siglec-10 WT CHO cells): 0.32 (2×) and 0.3 and 0.31
log10(MFI AF647) of GLL relative to log10(MFI AF647) of the same GLL against UT CHO cells (Fig. 2a) (Siglec-15 WT CHO cells): -0.08 and -0.06 and -0.07 (2×)

GM4
log10(MFI AF647) of GLL relative to log10(MFI AF647) of the same GLL against UT CHO cells (Fig. 2a) [1]: 0 and -0.02 and 0.02 and 0.01
log10(MFI AF647) of GLL relative to log10(MFI AF647) of the same GLL against UT CHO cells (Fig. 2a) (Siglec-10 WT CHO cells): 0.2 and 0.21 (3×)
log10(MFI AF647) of GLL relative to log10(MFI AF647) of the same GLL against UT CHO cells (Fig. 2a) (Siglec-15 WT CHO cells): -0.1 and -0.08 (2×) and -0.07

GM3
log10(MFI AF647) of GLL relative to log10(MFI AF647) of the same GLL against UT CHO cells (Fig. 2a) [1]: -0.12 (2×) and -0.13 (2×)
log10(MFI AF647) of GLL relative to log10(MFI AF647) of the same GLL against UT CHO cells (Fig. 2a) (Siglec-10 WT CHO cells): -0.09 (2×) and -0.02 and -0.08
log10(MFI AF647) of GLL relative to log10(MFI AF647) of the same GLL against UT CHO cells (Fig. 2a) (Siglec-15 WT CHO cells): -0.12 and -0.09 (2×) and -0.1

GQ1b
log10(MFI AF647) of GLL relative to log10(MFI AF647) of the same GLL against UT CHO cells (Fig. 2a) [1]: -0.06 (2×) and -0.07 and -0.05
log10(MFI AF647) of GLL relative to log10(MFI AF647) of the same GLL against UT CHO cells (Fig. 2a) (Siglec-10 WT CHO cells): 0.23 and 0.24 and 0.22 and 0.21
log10(MFI AF647) of GLL relative to log10(MFI AF647) of the same GLL against UT CHO cells (Fig. 2a) (Siglec-15 WT CHO cells): -0.13 and -0.12 (2×) and -0.17

GT1b
log10(MFI AF647) of GLL relative to log10(MFI AF647) of the same GLL against UT CHO cells (Fig. 2a) [1]: 0.05 and 0.03 (2×) and 0
log10(MFI AF647) of GLL relative to log10(MFI AF647) of the same GLL against UT CHO cells (Fig. 2a) (Siglec-10 WT CHO cells): 0.42 (2×) and 0.4 and 0.39
log10(MFI AF647) of GLL relative to log10(MFI AF647) of the same GLL against UT CHO cells (Fig. 2a) (Siglec-15 WT CHO cells): -0.04 (3×) and -0.01

GD1b
log10(MFI AF647) of GLL relative to log10(MFI AF647) of the same GLL against UT CHO cells (Fig. 2a) [1]: -0.02 and -0.04 and -0.01 and 0
log10(MFI AF647) of GLL relative to log10(MFI AF647) of the same GLL against UT CHO cells (Fig. 2a) (Siglec-10 WT CHO cells): 0.18 and 0.23 and 0.2 and 0.22
log10(MFI AF647) of GLL relative to log10(MFI AF647) of the same GLL against UT CHO cells (Fig. 2a) (Siglec-15 WT CHO cells): -0.14 (2×) and -0.12 (2×)

GM1
log10(MFI AF647) of GLL relative to log10(MFI AF647) of the same GLL against UT CHO cells (Fig. 2a) [1]: -0.02 and 0.03 and 0.04 and 0.09
log10(MFI AF647) of GLL relative to log10(MFI AF647) of the same GLL against UT CHO cells (Fig. 2a) (Siglec-10 WT CHO cells): 0.32 (2×) and 0.35 and 0.26
GLL binding to Siglec-10 (in words) (Siglec-10 WT CHO cells): novel interactions were observed
log10(MFI AF647) of GLL relative to log10(MFI AF647) of the same GLL against UT CHO cells (Fig. 2a) (Siglec-15 WT CHO cells): -0.21 and -0.2 and -0.17 (2×)

GM2
log10(MFI AF647) of GLL relative to log10(MFI AF647) of the same GLL against UT CHO cells (Fig. 2a) [1]: 0.05 and 0.07 (2×) and 0.06
log10(MFI AF647) of GLL relative to log10(MFI AF647) of the same GLL against UT CHO cells (Fig. 2a) (Siglec-10 WT CHO cells): 0.23 and 0.24 and 0.22 and 0.18
log10(MFI AF647) of GLL relative to log10(MFI AF647) of the same GLL against UT CHO cells (Fig. 2a) (Siglec-15 WT CHO cells): -0.07 and -0.05 and -0.03 (2×)

GD3
log10(MFI AF647) of GLL relative to log10(MFI AF647) of the same GLL against UT CHO cells (Fig. 2a) [1]: 0.12 (2×) and 0.09 and 0.1
log10(MFI AF647) of GLL relative to log10(MFI AF647) of the same GLL against UT CHO cells (Fig. 2a) (Siglec-10 WT CHO cells): 0.33 (2×) and 0.31 (2×)
GLL binding to Siglec-10 (in words) (Siglec-10 WT CHO cells): novel interactions were observed
log10(MFI AF647) of GLL relative to log10(MFI AF647) of the same GLL against UT CHO cells (Fig. 2a) (Siglec-15 WT CHO cells): -0.02 and -0.01 and 0 and -0.03
